{"source": "ChEMBL document CHEMBL5614421", "about": "“Structure-activity relationship study of Pseudellone C as anti-glioma agents by targeting TNF/TNFR signaling pathway” (Eur J Med Chem, 2024)", "key": {"U-87 MG [1]": {"tested_on": "U-87 MG", "assay": "Induction of apoptosis in human U-87 MG cells assessed as late apoptotic cells at 20 uM incubated for 24 hrs in presence of R7050 by Annexin V-APC/7-AAD staining based flow cytometric analysis (reference value: 7.7 %)", "assay_type": "functional, U-87MG ATCC"}, "U-87 MG [2]": {"tested_on": "U-87 MG", "assay": "Induction of apoptosis in human U-87 MG cells assessed as necrotic cells at 20 uM incubated for 24 hrs by Annexin V-APC/7-AAD staining based flow cytometric analysis (reference value: 0.21 %)", "assay_type": "functional, U-87MG ATCC"}, "LN-229 [3]": {"tested_on": "LN-229", "assay": "Induction of apoptosis in human LN-229 cells assessed as viable cells at 20 uM incubated for 24 hrs by Annexin V-APC/7-AAD staining based flow cytometric analysis (reference value: 95.4 %)", "assay_type": "functional", "details": "read-out: Activity"}, "LN-229 [4]": {"tested_on": "LN-229", "assay": "Induction of apoptosis in human LN-229 cells assessed as early apoptotic cells at 10 uM incubated for 24 hrs by Annexin V-APC/7-AAD staining based flow cytometric analysis (reference value: 0.45 %)", "assay_type": "functional"}, "U-87 MG [5]": {"tested_on": "U-87 MG", "assay": "Induction of apoptosis in human U-87 MG cells assessed as viable cells at 20 uM incubated for 12 hrs by Annexin V-APC/7-AAD staining based flow cytometric analysis (reference value: 94.6 %)", "assay_type": "functional, U-87MG ATCC", "details": "read-out: Activity"}, "U-87 MG [6]": {"tested_on": "U-87 MG", "assay": "Induction of apoptosis in human U-87 MG cells assessed as viable cells at 20 uM incubated for 24 hrs by Annexin V-APC/7-AAD staining based flow cytometric analysis (reference value: 94.6 %)", "assay_type": "functional, U-87MG ATCC", "details": "read-out: Activity"}, "U-87 MG [7]": {"tested_on": "U-87 MG", "assay": "Induction of apoptosis in human U-87 MG cells assessed as necrotic cells at 20 uM incubated for 12 hrs by Annexin V-APC/7-AAD staining based flow cytometric analysis (reference value: 1 %)", "assay_type": "functional, U-87MG ATCC"}, "LN-229 [8]": {"tested_on": "LN-229", "assay": "Induction of apoptosis in human LN-229 cells assessed as early apoptotic cells at 20 uM incubated for 12 hrs by Annexin V-APC/7-AAD staining based flow cytometric analysis (reference value: 2.46 %)", "assay_type": "functional"}, "LN-229 [9]": {"tested_on": "LN-229", "assay": "Induction of apoptosis in human LN-229 cells assessed as late apoptotic cells at 20 uM incubated for 12 hrs by Annexin V-APC/7-AAD staining based flow cytometric analysis (reference value: 5.1 %)", "assay_type": "functional"}, "LN-229 [10]": {"tested_on": "LN-229", "assay": "Induction of apoptosis in human LN-229 cells assessed as necrotic cells at 20 uM incubated for 12 hrs by Annexin V-APC/7-AAD staining based flow cytometric analysis (reference value: 0.7 %)", "assay_type": "functional"}, "LN-229 [11]": {"tested_on": "LN-229", "assay": "Induction of apoptosis in human LN-229 cells assessed as necrotic cells at 20 uM incubated for 24 hrs by Annexin V-APC/7-AAD staining based flow cytometric analysis (reference value: 1.95 %)", "assay_type": "functional"}, "LN-229 [12]": {"tested_on": "LN-229", "assay": "Induction of apoptosis in human LN-229 cells assessed as necrotic cells at 20 uM incubated for 24 hrs in presence of R7050 by Annexin V-APC/7-AAD staining based flow cytometric analysis (reference value: 1.95 %)", "assay_type": "functional"}, "U-87 MG [13]": {"tested_on": "U-87 MG", "assay": "Induction of apoptosis in human U-87 MG cells at 10 uM incubated for 48 hrs by Annexin V-APC/7-AAD staining based flow cytometric analysis (reference value: 5.43 +/- 0.54 %)", "assay_type": "functional, U-87MG ATCC"}, "U-87 MG [14]": {"tested_on": "U-87 MG", "assay": "Induction of apoptosis in human U-87 MG cells assessed as reduction in Bcl-2/Bax ratio at 5 to 20 uM incubated for 24 hrs by Western blot analysis", "assay_type": "functional, cell-based", "details": "U-87MG ATCC, dose 5-20 µM"}, "LN-229 [15]": {"tested_on": "LN-229", "assay": "Induction of apoptosis in human LN-229 cells assessed as reduction in Bcl-2/Bax ratio at 5 to 20 uM incubated for 24 hrs by Western blot analysis", "assay_type": "functional, cell-based", "details": "dose 5-20 µM"}, "U-87 MG [16]": {"tested_on": "U-87 MG", "assay": "Induction of apoptosis in human U-87 MG cells assessed as upregulation of TNF-alpha gene expression incubated for 24 hrs by transcriptome sequencing analysis", "assay_type": "functional, cell-based", "details": "U-87MG ATCC"}, "U-87 MG [17]": {"tested_on": "U-87 MG", "assay": "Induction of apoptosis in human U-87 MG cells at 20 uM incubated for 24 hrs in presence of R7050 by Annexin V-APC/7-AAD staining based flow cytometric analysis relative to control", "assay_type": "functional, U-87MG ATCC"}}, "note": "The source made the active and inactive calls. No cut-off for these calls is given here."}
{"smiles": "CCCCCCCNC(=O)[C@H](Cc1c[nH]c2ccccc12)NC(=O)C(C)(c1c[nH]c2ccccc12)c1c[nH]c2ccccc12", "values": [{"measurement": "Activity", "setting": "U-87 MG [1]", "value": 2.87, "unit": "%"}, {"measurement": "Activity", "setting": "U-87 MG [2]", "value": 0.47, "unit": "%"}, {"measurement": "viability at 20 µM", "setting": "LN-229 [3]", "value": 79.8, "unit": "%"}, {"measurement": "Activity", "setting": "LN-229 [4]", "value": 3.58, "unit": "%"}, {"measurement": "viability at 20 µM", "setting": "U-87 MG [5]", "value": 93.8, "unit": "%"}, {"measurement": "viability at 20 µM", "setting": "U-87 MG [6]", "value": 92, "unit": "%"}, {"measurement": "Activity", "setting": "U-87 MG [7]", "value": 1.01, "unit": "%"}, {"measurement": "Activity", "setting": "LN-229 [8]", "value": 1.76, "unit": "%"}, {"measurement": "Activity", "setting": "LN-229 [9]", "value": 4.06, "unit": "%"}, {"measurement": "Activity", "setting": "LN-229 [10]", "value": 1.45, "unit": "%"}, {"measurement": "Activity", "setting": "LN-229 [11]", "value": 1.94, "unit": "%"}, {"measurement": "Activity", "setting": "LN-229 [12]", "value": 1.25, "unit": "%"}, {"measurement": "Activity", "setting": "U-87 MG [13]", "value": 17.37, "unit": "%"}, {"measurement": "Activity", "setting": "U-87 MG [14]", "value": "Active"}, {"measurement": "Activity", "setting": "LN-229 [15]", "value": "Active"}, {"measurement": "Activity", "setting": "U-87 MG [16]", "value": "Active"}, {"measurement": "Activity", "setting": "U-87 MG [17]", "value": 9.37, "unit": "%"}]}
